According to paper PMC10331583, “Control of fibrosis with enhanced safety via asymmetric inhibition of prolyl‐tRNA synthetase 1” (EMBO Molecular Medicine, 2023):
“And” between values parts separate entries of the source, which are not always exact repeats. Identical values can stand only once.

Tests used:
[1] = system: WI‐26 VA4 cells stably expressing EV (empty vector); test: Collagen ELISA in cells stably expressing EV; details: WI-26 VA4 EV; for Collagen level, average: average of 4 experiments; for Collagen level, single replicates: replicates of Experiments #1-#4
[2] = system: WI‐26 VA4 cells stably expressing PARS1 FA/EA/RL mutant; test: Collagen ELISA in cells stably expressing PARS1 mutant; details: for Collagen level, average: average of 4 experiments; for Collagen level, single replicates: replicates of Experiments #1-#4
[3] = system: WI‐26 VA4 cells; test: Immunoblot of cellular protein levels with different proline content; type: cell-based, human; details: Fig 2A
Description: The levels of proteins were determined by immunoblot assay. […] The lowest concentration at which protein levels started to decrease was normalized by IC50 values for collagen level and used as the y‐axis value. […] The slope and R^2 value were calculated using GraphPad Prism 7.0. […] The activation of the TGF‐β pathway was determined by monitoring the phosphorylation of SMAD2. Immunoblot images are representative of three biologically independent experiments. • The band intensities of the immunoblot images in (C) were quantified using ImageJ (n = 3; One‐way ANOVA; *P < 0.05, **P < 0.01, ***P < 0.001; mean ± SEM). Source data are available online for this figure.

[4] = WI-26 VA4 Flag-PARS1 FA/EA/RL, 30 nM
[5] = WI-26 VA4 Flag-PARS1 FA/EA/RL, 100 nM
[6] = WI-26 VA4 Flag-PARS1 FA/EA/RL, 300 nM
[7] = WI-26 VA4 Flag-PARS1 FA/EA/RL, 1000 nM
[8] = WI-26 VA4 Flag-PARS1 FA/EA/RL, 3000 nM
[9] = WI-26 VA4 Flag-PARS1 FA/EA/RL, 10000 nM
[10] = WI-26 VA4 Flag-PARS1 FA/EA/RL, 30000 nM
[11] = WI-26 VA4 Flag-PARS1 FA/EA/RL, 100000 nM
[12] = WI-26 VA4 Flag-PARS1 FA/EA/RL, 300000 nM

O[C@H]1CCCN[C@@H]1CCCn1cnc2c(Cl)c(Cl)ccc21 [DWN12088]
Collagen level, average ([1]; 100 nM): 97.93 % of control | Collagen level, single replicates ([1]; 100 nM): 104.52 % of control and 100.73 % of control and 92.07 % of control and 94.49 % of control and 97.76 % of control and 98.74 % of control and 108.25 % of control and 102.28 % of control and 98.65 % of control and 91.35 % of control and 85.38 % of control and 100.91 % of control | Collagen level, average ([1]; 300 nM): 81.48 % of control | Collagen level, single replicates ([1]; 300 nM): 91.09 % of control and 79.16 % of control and 74.69 % of control and 82.43 % of control and 80.75 % of control and 70.25 % of control and 88.16 % of control and 89.14 % of control and 75.64 % of control and 84.11 % of control and 76.95 % of control and 85.36 % of control | Collagen level, average ([1]; 1000 nM): 68.39 % of control | Collagen level, single replicates ([1]; 1000 nM): 76.13 % of control and 68.91 % of control and 67.97 % of control and 76.57 % of control and 67.70 % of control and 49.07 % of control and 76.54 % of control and 74.06 % of control and 46.15 % of control and 70.23 % of control and 69.64 % of control and 77.72 % of control | Collagen level, average ([1]; 3000 nM): 47.79 % of control | Collagen level, single replicates ([1]; 3000 nM): 46.50 % of control and 50.68 % of control and 52.48 % of control and 46.12 % of control and 48.12 % of control and 44.47 % of control and 46.33 % of control and 45.40 % of control and 47.63 % of control and 51.25 % of control and 49.30 % of control and 45.24 % of control | Collagen level, average ([1]; 10000 nM): 13.92 % of control | Collagen level, single replicates ([1]; 10000 nM): 13.28 % of control and 17.27 % of control and 16.23 % of control and 13.89 % of control and 12.05 % of control and 10.58 % of control and 12.31 % of control and 11.80 % of control and 11.03 % of control and 17.85 % of control and 17.12 % of control and 13.65 % of control | Collagen level, average ([1]; 30000 nM): 4.05 % of control | Collagen level, single replicates ([1]; 30000 nM): 4.24 % of control and 4.41 % of control and 4.74 % of control and 6.13 % of control and 2.65 % of control and 2.97 % of control and 3.41 % of control and 2.56 % of control and 2.84 % of control and 4.90 % of control and 3.97 % of control and 5.81 % of control | Collagen level, average ([1]; 100000 nM): 3.50 % of control | Collagen level, single replicates ([1]; 100000 nM): 2.77 % of control and 4.80 % of control and 4.00 % of control and 3.82 % of control and 3.27 % of control and 2.48 % of control and 2.45 % of control and 2.57 % of control and 2.65 % of control and 4.71 % of control and 3.89 % of control and 4.63 % of control | Collagen level, average ([1]; 300000 nM): 2.44 % of control | Collagen level, single replicates ([1]; 300000 nM): 2.49 % of control and 2.31 % of control and 2.89 % of control and 2.54 % of control | HillSlope, collagen level ([1]; four-parameter fit): -0.8641 | LogIC50, collagen level ([1]; log of concentration in nM, four-parameter fit): 3.281 | IC50 ([2]; Homo sapiens, WI26VA4, read-out: IC50, collagen level): 1490 nM | CC50/collagen IC50 ([2]; PARS1 FA/EA/RL cells): 7.88 | Relative (CC50)/(collagen IC50) ([2]; PARS1 FA/EA/RL cells, relative to EV): 0.63 | Collagen level, average [2, 4]: 96.80 % of control | Collagen level, single replicates [2, 4]: 101.27 % of control and 106.03 % of control and 102.09 % of control and 97.52 % of control and 107.38 % of control and 87.30 % of control and 97.03 % of control and 100.22 % of control and 82.11 % of control and 93.95 % of control and 95.06 % of control and 91.64 % of control | Collagen level, average [2, 5]: 91.15 % of control | Collagen level, single replicates [2, 5]: 92.43 % of control and 98.06 % of control and 99.31 % of control and 91.83 % of control and 92.72 % of control and 85.46 % of control and 90.73 % of control (2×) and 82.66 % of control and 81.56 % of control and 88.43 % of control and 99.91 % of control | Collagen level, average [2, 6]: 79.61 % of control | Collagen level, single replicates [2, 6]: 87.41 % of control and 88.18 % of control and 78.49 % of control and 71.44 % of control and 76.98 % of control and 80.63 % of control and 81.90 % of control and 76.13 % of control and 73.84 % of control and 86.07 % of control and 78.20 % of control and 75.99 % of control | Collagen level, average [2, 7]: 62.53 % of control | Collagen level, single replicates [2, 7]: 72.91 % of control and 64.62 % of control and 69.50 % of control and 60.49 % of control and 52.43 % of control and 63.48 % of control and 72.89 % of control and 52.77 % of control and 57.64 % of control and 59.18 % of control and 66.74 % of control and 57.76 % of control | Collagen level, average [2, 8]: 26.56 % of control | Collagen level, single replicates [2, 8]: 25.97 % of control and 27.35 % of control and 25.49 % of control and 26.93 % of control and 30.39 % of control and 26.86 % of control and 25.02 % of control and 29.58 % of control and 24.14 % of control and 24.80 % of control and 25.63 % of control and 26.57 % of control | Collagen level, average [2, 9]: 4.37 % of control | Collagen level, single replicates [2, 9]: 4.38 % of control and 3.58 % of control and 3.17 % of control and 5.34 % of control and 4.53 % of control and 5.67 % of control and 3.18 % of control and 3.93 % of control and 4.88 % of control and 4.67 % of control and 4.47 % of control and 4.59 % of control | Collagen level, average [2, 10]: 2.20 % of control | Collagen level, single replicates [2, 10]: 2.07 % of control and 2.38 % of control and 2.98 % of control and 3.14 % of control and 2.40 % of control and 2.09 % of control and 1.49 % of control and 1.46 % of control and 1.88 % of control (2×) and 2.96 % of control and 1.71 % of control | Collagen level, average [2, 11]: 1.94 % of control | Collagen level, single replicates [2, 11]: 2.11 % of control and 2.24 % of control and 1.83 % of control and 2.90 % of control and 1.40 % of control and 1.89 % of control and 1.44 % of control and 1.33 % of control and 1.75 % of control and 1.90 % of control and 2.31 % of control and 2.15 % of control | Collagen level, average [2, 12]: 1.36 % of control | Collagen level, single replicates [2, 12]: 1.67 % of control and 0.92 % of control and 0.84 % of control and 1.94 % of control | HillSlope, collagen level ([2]; WI-26 VA4 Flag-PARS1 FA/EA/RL, four-parameter fit): -1.331 | LogIC50, collagen level ([2]; WI-26 VA4 Flag-PARS1 FA/EA/RL, log of concentration in nM, four-parameter fit): 3.174 | effective dose for decreasing general proteins (SMAD2, AIMP2, AMPKα, cyclin D1) compared with COL1A1 [3]: about 10 times
